From patent US9944666B2, “Compounds that are S1P modulating agents and/or ATX modulating agents” (BIOGEN MA INC., priority 2012, dated 2018)

These compounds were tested against T1, Human ATX protein (Homo sapiens, UniProt Q13822) (assay: ATX biochemical FRET assay with FS-3 substrate). Settings: FS-3 2 μM, ATX 1.0 μg/mL, room temperature 2 hours, fluorescence 485/538 nm.
T1 construct: made in house
Outline: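 Purified human ATX (1.0 μg/mL final) preincubated with compound 30 min at room temperature in Tris pH 7.4 buffer with NaCl, KCl, CaCl2, MgCl2 and 1 mg/mL fatty acid-free BSA. FS-3 added to 2 μM final; 2 h at room temperature in the dark, fluorescence at ex 485/em 538 nm.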

`COC(=O)C1CC2CCCC(C1)N2C(=O)c1ccc2c(C(F)(F)F)c(N[C@H]3CC[C@@H](C(F)(F)F)CC3)ccc2c1` (stereo partly drawn) [Example 244, methyl 9-(5-(trifluoromethyl)-6-((cis-4-(trifluoromethyl)cyclohexyl)amino)-2-naphthoyl)-9-azabicyclo[3.3.1]nonane-3-carboxylate] and `O=C(O)C1CC2CCCC(C1)N2C(=O)c1ccc2c(C(F)(F)F)c(N[C@H]3CC[C@@H](C(F)(F)F)CC3)ccc2c1` (stereo partly drawn) [Example 245, 9-(5-(trifluoromethyl)-6-((cis-4-(trifluoromethyl)cyclohexyl)amino)-2-naphthoyl)-9-azabicyclo[3.3.1]nonane-3-carboxylic acid] cannot be ordered by IC50: at most 100 nM for the first, at most 100 nM for the second.

`CC(C)(C)[C@H]1CC[C@H](Nc2ncc3cc(C(=O)N4C5CCC4CC(C(=O)O)C5)ccc3n2)CC1` (stereo partly drawn) [Example 262, 8-(2-((trans-4-(tert-butyl)cyclohexyl)amino)quinazoline-6-carbonyl)-8-azabicyclo[3.2.1]octane-3-carboxylic acid] and `CC(C)(C)[C@H]1CC[C@@H](Nc2ncc3cc(C(=O)N4C5CCC4CC(C(=O)O)C5)ccc3c2Cl)CC1` (stereo partly drawn) [Example 272, 8-(3-((cis-4-(tert-butyl)cyclohexyl)amino)-4-chloroisoquinoline-7-carbonyl)-8-azabicyclo[3.2.1]octane-3-carboxylic acid] cannot be ordered by IC50: at most 100 nM for the first, at most 250 nM for the second.

`C[C@H]1CC[C@H](Nc2cc3ccc(C(=O)N4C5CCCC4CC(C(=O)O)C5)cc3cn2)CC1` (stereo partly drawn) [Example 263, 9-(3-((trans-4-methylcyclohexyl)amino)isoquinoline-7-carbonyl)-9-azabicyclo[3.3.1]nonane-3-carboxylic acid] and `C[C@H]1CC[C@H](Nc2cc3ccc(C(=O)N4C5CCC4CC(C(=O)O)C5)cc3cn2)CC1` (stereo partly drawn) [Example 264, 8-(3-((trans-4-methylcyclohexyl)amino)isoquinoline-7-carbonyl)-8-azabicyclo[3.2.1]octane-3-carboxylic acid] cannot be ordered by IC50: at most 500 nM for the first, at most 500 nM for the second.

`C[C@H]1CC[C@@H](Nc2ncc3cc(CN4C5CCCC4CC(C(=O)O)C5)ccc3c2Cl)CC1` (stereo partly drawn) [Example 271, 9-((4-chloro-3-((cis-4-methylcyclohexyl)amino)isoquinolin-7-yl)methyl)-9-azabicyclo[3.3.1]nonane-3-carboxylic acid] and `C[C@H]1CC[C@@H](Oc2ccc3cc(CN4C5CCCC4CC(C(=O)O)C5)ncc3c2Br)CC1` (stereo partly drawn) [Example 279, 9-((8-bromo-7-((cis-4-methylcyclohexyl)oxy)isoquinolin-3-yl)methyl)-9-azabicyclo[3.3.1]nonane-3-carboxylic acid] cannot be ordered by IC50: at most 500 nM for the first, at most 500 nM for the second.

`O=C(O)C1CC2CCCC(C1)N2Cc1cc2ccc(O[C@H]3CC[C@@H](C(F)(F)F)CC3)c(Br)c2cn1` (stereo partly drawn) [Example 274, 9-((8-bromo-7-((cis-4-(trifluoromethyl)cyclohexyl)oxy)isoquinolin-3-yl)methyl)-9-azabicyclo[3.3.1]nonane-3-carboxylic acid] and `NC1CC2CC(C(=O)O)CC(C1)N2Cc1ccc2c(C(F)(F)F)c(O[C@H]3CC[C@@H](C(F)(F)F)CC3)ccc2c1` (stereo partly drawn) [Example 284, 9-(1R,3R,5S)-7-amino-9-((5-(trifluoromethyl)-6-((cis-4-(trifluoromethyl)cyclohexyl)oxy)naphthalen-2-yl)methyl)-9-azabicyclo[3.3.1]nonane-3-carboxylic acid] cannot be ordered by IC50: at most 250 nM for the first, at most 250 nM for the second.

`CC[C@H]1CC[C@@H](Oc2ccc3nc(NC4C5CCC4CC(C(=O)O)C5)ccc3c2C(F)(F)F)CC1` (stereo partly drawn) [Example 280, 8-((6-((cis-4-ethylcyclohexyl)oxy)-5-(trifluoromethyl)quinolin-2-yl)amino)bicyclo[3.2.1]octane-3-carboxylic acid] and `CC[C@H]1CC[C@@H](Oc2ccc3nc(NC4C5CCCC4CC(C(=O)O)C5)ccc3c2Cl)CC1` (stereo partly drawn) [Example 281, 9-((5-chloro-6-((cis-4-ethylcyclohexyl)oxy)quinolin-2-yl)amino)bicyclo[3.3.1]nonane-3-carboxylic acid] cannot be ordered by IC50: at most 100 nM for the first, at most 100 nM for the second.

`O=C(O)C1CC2CC(C(=O)O)CC(C1)N2Cc1ccc2c(C(F)(F)F)c(O[C@H]3CC[C@@H](C(F)(F)F)CC3)ccc2c1` (stereo partly drawn) [Example 282, (1R,3S,5S)-9-((5-(trifluoromethyl)-6-((cis-4-(trifluoromethyl)cyclohexyl)oxy)naphthalen-2-yl)methyl)-9-azabicyclo[3.3.1]nonane-3,7-dicarboxylic acid] and `O=C(O)C12CC3CC(C1)N(Cc1ccc4c(C(F)(F)F)c(O[C@H]5CC[C@@H](C(F)(F)F)CC5)ccc4c1)C(C3)C2` [Example 283, 9-(1R,3S,5S,7S)-2-((5-(trifluoromethyl)-6-((cis-4-(trifluoromethyl)cyclohexyl)oxy)naphthalen-2-yl)methyl)-2-azaadamantane-5-carboxylic acid] cannot be ordered by IC50: at most 100 nM for the first, at most 100 nM for the second.

In the case of `CCC1CCC(Oc2ccc3cc(C(CC)N4C5CCCC4CC(C(=O)O)C5)ccc3c2C(F)(F)F)CC1` [Example 297, 9-((R)-1-(6-(((1s,4S)-4-ethylcyclohexyl)oxy)-5-(trifluoromethyl)naphthalen-2-yl)propyl)-9-azabicyclo[3.3.1]nonane-3-carboxylic acid], the IC50 is reported as at most 250 nM.
